The text below walks through data of ChEMBL document CHEMBL5728011, “Bicyclic heterocyclic compound” (2020).

Each structure is given as a SMILES string.

The assay deals with Kynurenine/alpha-aminoadipate aminotransferase, mitochondrial (Homo sapiens, UniProt Q8N5Z0). The assay is described as follows: Inhibitory Assay: To a reaction mixture (45 μL) containing 3.0 μmol/L kynurenine, 10 μmol/L pyridoxal phosphate, 2.0 ng/μL human recombinant KAT-II, and 150 mmol/L tris(hydroxymethyl)aminomethane-acetate buffer (pH 8.0) was added a 10% dimethyl sulfoxide solution (5 μL) of each test compound prepared, and the mixture was reacted at 37° C. for 1 hr. After the reaction, 50% trichloroacetic acid (5 μL) was added to terminate the reaction.The resultant kynurenic acid was quantified as follows by high performance liquid chromatography. An enzyme reaction mixture was separated by an octadecylsilane reversed-phase column (SC-50DS, Eicom Corporation; mobile phase: 250 mmol/L zinc acetate, 50 mmol/L sodium acetate, and 5.0% acetonitrile (pH 6.2)) incubated at 30° C., and kynurenic acid was quantified using a fluorescence detector (RF-20Axs, Shimadzu Corporation) at excitation wavelength 354 nm, detection wavelength 460 nm. The analytical curve was drawn every time by an external standard method. Each test compound was tested by dual measurement at each concentration. The kynurenic acid level in the presence of a test compound at each concentration was converted into % relative to kynurenic acid resulting from a reaction with an enzyme alone as 100%, and the obtained values were fitted to S-curve to determine IC50.
Chain of Kynurenine/alpha-aminoadipate aminotransferase, mitochondrial (Q8N5Z0 whole entry): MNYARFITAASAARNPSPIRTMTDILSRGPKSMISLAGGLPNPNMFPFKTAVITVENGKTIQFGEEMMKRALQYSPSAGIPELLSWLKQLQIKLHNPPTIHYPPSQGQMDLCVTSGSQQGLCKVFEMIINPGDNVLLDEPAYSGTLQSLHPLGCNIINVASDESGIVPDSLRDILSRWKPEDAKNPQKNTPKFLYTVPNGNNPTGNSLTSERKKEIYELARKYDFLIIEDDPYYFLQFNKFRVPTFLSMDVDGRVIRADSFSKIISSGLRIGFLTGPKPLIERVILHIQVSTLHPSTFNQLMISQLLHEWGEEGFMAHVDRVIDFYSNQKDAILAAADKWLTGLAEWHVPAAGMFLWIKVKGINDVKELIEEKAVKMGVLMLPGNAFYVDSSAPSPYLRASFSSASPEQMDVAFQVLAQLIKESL
For `CC1(C)CN(c2ncnc3nc(N4CCC[C@@H]4C(=O)NCc4ccccc4)sc23)CCO1`, the IC50 came out at 71 nM.

`COCCc1nc(N(C)C)c2sc(N3CCC[C@@H]3C(=O)NCc3ccccc3)nc2n1`: the IC50 worked out at 64 nM.

For the molecule `Cc1nc(N(C)C)c2sc(N3CCC[C@@H]3C(=O)NCc3ccccc3)nc2n1`, the IC50 is 50 nM.

On to `CN(C)c1nc(C(F)(F)F)nc2nc(N3CCC[C@@H]3C(=O)NCc3ccccc3)sc12`, for which the IC50 worked out at 27 nM.

On to `COCCOc1ncnc2nc(N3CCC[C@@H]3C(=O)NCc3ccccc3)sc12`, for which the IC50 was found to be 140 nM.

On to `O=C(NCc1ccccc1)[C@H]1CCCN1c1nc2ncnc(N3CCOCC3)c2s1`, for which the IC50 was found to be 47 nM.

For `COCc1nc(N(C)C)c2sc(N3CCC[C@@H]3C(=O)NCc3ccccc3)nc2n1`, the half-inhibitory concentration (IC50) is 82 nM.

In the case of `CON(C)c1ncnc2nc(N3CCC[C@@H]3C(=O)NCc3ccccc3)sc12`, the IC50 turned out to be 35 nM.

Broadly, the IC50 is the concentration needed to halve the response being measured.
